Assay results from patent publication US10174068B2, “Methods of functionalization and reagents used in such methods using an aza-isatoic anhydride or a derivative thereof, biological molecules thus treated and kits” (BIOMERIEUX, priority 2012, dated 2019).

Tests used:
ORN with 27 bases = assay: Functionalization of a 27-mer ORN, degree of functionalization (Df) by HPLC after nuclease P1/alkaline phosphatase hydrolysis
Procedure: A comparison of the reactivity of the aza-isatoic anhydride derivative 14 relative to the reference isatoic derivative, Biot-peg4-SS-IAMe as described in WO-A-2012/076794, with respect to a 27-base model ORN (seq: 5′-AAC-CGC-AGU-GAC-ACC-CUC-AUC-AUU-ACA-3′, Eurogentec, Liege Science Park, Belgium) is carried out. For this, a fixed amount of ORN is reacted with an isatoic anhydride derivative conjugated with a molecule of interest, at 65° C. and at room temperature. The reaction is monitored by HPLC at 260 nm as was described previously in patent application WO-A-2012/076794 in example 3. This analysis makes it possible to detect the disappearance of the peak corresponding to the initial ORN and the appearance of peaks corresponding to the acylated ORN. These products have a greater retention time, and an absorption spectrum corresponding both to that of the ORN, and to that of the functionalizing reagent.
For precise evaluation of the degree of functionalization (Df), the ORN population (labelled and unlabelled) is separated from the surplus marker by precipitation with acetone/lithium perchlorate. Then the ORNs thus obtained are submitted to hydrolysis with nuclease P1 (Aldrich, Saint Louis, USA) and with alkaline phosphatase (Aldrich, Saint Louis, USA) in order to hydrolyse the phosphate diester bonds of the ORN.
LC-MS analysis of this mixture then allows several populations to be characterized and identified: • unlabelled ribonucleosides; • labelled mono-nucleoside adducts, which differ very clearly by a longer retention time, and by a UV spectrum characteristic of the nucleic acids and of the functionalizing reagent; • dinucleotides acylated at 2′ which, because of the anthranilate group substituted with the group of interest at 2′, cannot be cleaved by the nuclease P1; • per-acylated 2′OH trinucleotides or tetranucleotides, which may form theoretically but which are statistically very little represented (as this would then require two or three consecutive acylations of 2′OH), are not investigated.
The degree of functionalization of the ORN (Df) is evaluated by measuring: • the area corresponding to the terminal mononucleoside adducts (functionalized at 2′ and at 3′) and the area corresponding to the acylated dinucleotides (functionalized internally on the 2′OH) • compared to the area of the peaks corresponding to the four ribonucleosides.
In a standard experiment, the equivalent of 8 nmol of an ORN with 27 bases (5′-AAC-CGC-AGU-GAC-ACC-CUC-AUC-AUU-ACA-3′, Eurogentec, Liege Science Park, Belgium) in solution in water is first dried in a centrifugal evaporator (RCT 60, Jouan, St Herblain, France) in a 2-mL plastic Eppendorf tube. The dry residue obtained is first dissolved in 40 μL of water, then 20 μl of a buffered solution is added (in the example, a 1M triethylammonium acetate buffer solution, pH 7, Aldrich, St Louis, USA ref: 09748-100 ml). Finally, 20 μl of a solution of an isatoic anhydride derivative at 120 mM in DMSO is incorporated in the preceding solution (either the reference molecule Biot-peg4-SS-IAMe as described in FR 1060102 or the aza-isatoic derivative Biot-peg4-SS-azaIAMe (14) in this example). The mixture is incubated for 60 minutes at room temperature or at 65° C. in a stove on a rack pre-equilibrated in temperature. To remove the salts and the surplus marker, the mixture is then purified by triple precipitation in 1.2 mL of an acetone/LiClO4 180 mM 75/25 mixture. […]

[1] = test system: mixture of HIV RNA transcripts and genomic calf DNA; assay: Selective extraction of HIV RNA transcripts from a mixture with genomic DNA (functionalization/capture/cleavage/elution, Qubit quantification); settings: tag at 1.5 mM; for Final DNA/RNA ratio: after elution step 4
Procedure: For this, two biological models of nucleic acids were selected, HIV transcripts for RNA and genomic calf DNA. In order to compare the efficacy of the aza-isatoic derivative 14, these tests were also carried out on the reference compound Biot-peg4-SS-IAMe at 65° C. and at room temperature.
The nucleic acids used in this example are as follows: • HIV transcripts WT 1500 bases, at 1.94 μg/μL. • gDNA calf thymus, SIGMA (Saint Louis, USA), ref. D4764-5UN, at 1.92 μg/μL.
The following reagents are put in three 0.2-ml plastic tubes (Table 2 below):
In each case, the final concentrations of TEAAc and of functionalizing reagent are 250 mM and 1.5 mM respectively.
The three tubes are incubated for 1 hour at room temperature or at 65° C. on a heated rack.
Purification of the nucleic acids for each test was carried out in 5 different tubes of equivalent volume, in order to meet the optimum conditions for this step (i.e. 1 mg of magnetic silica per 2 μg of nucleic acids). Thus, each test is distributed in five 1.5-mL Eppendorf tubes i.e. 5 times 2.1 μL (2 μg of AN). 900 μL of lysis buffer (Easy Mag buffer, ref. 280134, bioMerieux, Marcy l'Etoile, France) and 50 μL of magnetic silica particles (EasyMAG silica, ref. 280133, bioMerieux, Marcy l'Etoile, France) are added to each tube. The latter are immediately stirred by the vortex effect after adding the silica, and then incubated for 10 minutes at room temperature. After magnetization on a DYNAL magnet, the supernatants are removed by aspiration with a pipette. For the next washing steps, the tubes are always stirred by the vortex effect and magnetized, followed by removal of the supernatant. A first washing is carried out with 500 μL of washing buffer 1 (Easy Mag buffer, ref. 280130, bioMerieux, Marcy l'Etoile, France). Two washings are then carried out with 900 μL and then 500 μL of washing buffer 2 (Easy Mag buffer, ref. 280131, bioMerieux, Marcy l'Etoile, France). Finally, a last washing step is carried out with 500 μL of elution buffer 3 (Easy Mag buffer, ref. 280132, bioMerieux, Marcy l'Etoile, France) at room temperature. […] The latter are analysed with the Qubit® Fluorometer instrument, ref. Q32857, Invitrogen (Carlsbad, Calif., United States of America), and using the kits Quant-iT RNA Assay Kit 5-100 ng (ref. Q32855, Invitrogen, Carlsbad, Calif., United States of America), and Quant-iT dsDNA HS Assay Kit 0.2-100 ng (ref. Q32854, Invitrogen, Carlsbad, Calif., United States of America). These analysis kits allow an RNA/DNA ratio to be determined in a mixture.
To perform this capture on magnetic particles, it is necessary to store each of the tests divided into 5 tubes in the preceding purification step. […] This supernatant is analysed as before with the Qubit® Fluorometer. […]

ODN with 27 bases = assay: Functionalization of a 27-mer ODN (chemo-selectivity RNA versus DNA); settings: room temperature, 1 hour, reagent 30 mM, DMSO/TEAAc 250 mM pH 7 25/75
Procedure: 8 nmol of ODN with 27 bases, Seq: 5′-AAC-CGC-AGT-GAC-ACC-CTC-ATC-ATT-ACA-3′ (Eurogentec, Liege Science Park, Belgium) or 8 nmol of an ORN with 27 bases, Seq: 5′-AAC-CGC-AGU-GAC-ACC-CUC-AUC-AUU-ACA-3′ (Eurogentec, Liege Science Park, Belgium) is reacted with the aza-isatoic anhydride derivative (14) at 30 mM in a mixture DMSO/buffer TEAAc (250 mM pH 7) 25/75, for 1 hour at room temperature. After precipitation with acetone and hydrolysis with nuclease P1 and alkaline phosphatase, the hydrolysed fragments are analysed by LC-MS, as described in example 3. An example of chromatograms for monitoring the reaction of the ODN or of the ORN with compound 14 is shown in FIG. 6, where traces A, B and C correspond respectively to the initial ORN, the ORN functionalized with compound 14 and precipitated, and the ORN functionalized with 14, precipitated and hydrolysed. Traces D, E and F represent the same results obtained with the ODN.

[2] = 65° C., 60 minutes, TEAAc pH 7, reagent 120 mM in DMSO diluted in the mixture
[3] = room temperature, 1 hour, TEAAc pH 7, reagent 30 mM

| Compound | uncorrected degree of functionalization (Df) of the ORN (ORN with 27 bases; [2]) [%] | uncorrected degree of functionalization (Df) of the ORN (ORN with 27 bases; [3]) [%] | S* (intermediate selectivity index) ([1]; functionalization at 65° C.) | Final DNA/RNA ratio ([1]; functionalization at 65° C.) | melting point [°C] | factor of increase of reactivity with respect to an oligoribonucleotide relative to the reference compound (ORN with 27 bases; 65° C.) | uncorrected degree of functionalization of the ODN (ODN with 27 bases) [%] | S* (intermediate selectivity index) ([1]; functionalization at Rt) | Final DNA/RNA ratio ([1]; functionalization at Rt) |
| --- | --- | --- | --- | --- | --- | --- | --- | --- | --- |
| O=C(CCCCC1SCC2NC(=O)NC21)NCCOCCOCCOCCC(=O)NCCSSCCC(=O)Nc1cccc2[nH]c(=O)oc(=O)c12 (centres unmarked) [Biot-peg4-SS-IAMe, reference compound] | 7.5 | 1 | 6 | 14/86 |  |  |  |  |  |
| Cn1c(=O)oc(=O)c2cc(CCC(=O)NCCSSCCNC(=O)CCCCC3SCC4NC(=O)NC43)cnc21 (centres unmarked) [Compound 12, 5-[(3AS,6AR)-2-OXO-HEXAHYDRO-1H-THIENO[3,4-D]IMIDAZOLIDIN-4-YL]-N-(2-{[2-(3-{1-METHYL-2,4-DIOXO-1H,2H,4H-PYRIDO[2,3-D][1,3]OXAZIN-6-YL}PROPANAMIDO)ETHYL]DISULPHANYL}ETHYL)PENTANAMIDE] |  |  |  |  | 125 |  |  |  |  |
| Cn1c(=O)oc(=O)c2cc(CCC(=O)NCCSSCCNC(=O)CCOCCOCCOCCOCCNC(=O)CCCCC3SCC4NC(=O)NC43)cnc21 [Compound 14, 1-{5-[(3aS,6aR)-2-oxo-hexahydro-1H-thieno[3,4-d]imidazolidin-4-yl]pentanamido}-N-(2-{[2-(3-{1-methyl-2,4-dioxo-1H,2H,4H-pyrido[2,3-d][1,3]oxazin-6-yl}propanamido)ethyl]disulphanyl}ethyl)-3,6,9,12-tetraoxapentadecan-15-amide] | 13.5 | 7.8 |  |  |  | 1.8 | 0.5 | 30 | 4/96 |
